16 molecules from patent US20160220542A1, “SYNERGISTIC ACTIVITY OF MODULATORS OF THE NO METABOLISM AND OF NADPH OXIDASE IN THE SENSITISATION OF TUMOR CELLS” (Universitaetsklinikum Freiburg, priority 2010, published 2016) can be followed below.

The test system of assay [1] is transformed 208Fsrc3 cells. Nature of the assay: apoptosis induction mediated by added myeloperoxidase (MPO). The class given is cell-based, rat. Particulars: 200 mU/ml MPO; 100 U/ml catalase, 50 mM taurine, 10 mM mannitol; 5 hours. As to the method: Instead of the autocrine apoptosis induction illustrated in Example 1, in the experiment illustrated in Example 2 the HOCl signalling pathway is accelerated by addition of exogenous MPO (FIG. 2A) or the NO/peroxynitrite pathway is induced by addition of the rapidly decomposing NO donor DEA NONOate.
12 500 transformed 208Fsrc3 cells per preparation (96 hole plate, 100 μl medium) were sown. Under A these also received 200 mU/ml MPO, and under B additionally 1.5 mM DEA NONOate. Control preparations remained free of MPO or DEA NONOate. In Part A additionally 100 U/ml catalase (KAT), 50 mM taurine (TAU), and 10 mM mannitol (MANN) were used.
In FIG. 2B the addition took place of 25 μM of the catalytically effective peroxynitrite destroyer FeTPPS. The duplicate preparations under A were assessed after 5 hours, and those under B after just 3 hours. […] The inhibitors confirm the involvement of hydrogen peroxide (inhibition by catalase), HOCl (inhibition by taurine), and hydroxyl radicals (inhibition by mannitol). Again a bell curve was obtained, the right part of which is dependent upon the availability of HOCl and the effect of hydroxyl radicals.

Assay [2] deals with extracellular superoxide anion production of MKN-45 cells. Nature of the assay: extracellular superoxide anion production of MKN-45 cells (Cu SOD bell curve shift). The class given is cell-based. Particulars: for stimulation of the NADPH oxidase: higher concentration range of the substances.
The next assay relates to NO dioxygenase (NOD). Nature of the assay: inhibition of NO dioxygenase (DEA NONOate-dependent apoptosis in MKN-45 cells). In kind it is cell-based. Particulars: for available NO concentration through inhibition of the NOD: broad concentration range; for effect on available NO concentration (NOD inhibition): as Example 10, 3 hours. As to the method: This test is based on the fact that NOD also effectively converts exogenously added NO into nitrate and thus in suitable cell systems (such as for example the tumour cell line MKN-45) can prevent apoptosis induction by NO/peroxynitrite.
This rules out a test substance having an influence over the reaction as a whole, through modulation of the catalase activity. The hydrogen peroxide released following the catalase inhibition is fully decomposed by 20-25 μM of the catalase mimetic EUK-134 (similar to the abovementioned EUK-8, but with a lower peroxidise activity). In this way both the HOCl pathway and the consumption of NO by hydrogen peroxide are prevented. For the modulation of the available NO concentration with the known mechanisms now only the NOD remains. If this is inhibited then the addition of exogenous NO leads to an increased apoptosis induction.
12 500 MKN-45 cells in 100 μl Medium had 200 mM 3-AT, 2.4 mM NAME, 25 μM EUK-134 and the stated concentrations of epothilone B (“EPO”) added. […] Then the stated concentrations of the NO donor DEANONOate were added and the preparations were incubated for a further 2 hours at 37° C. before the percentages of apoptotic cells were determined.
The experiment was carried out in the same way as described in FIG. 10, but with the difference that the stated concentrations of DADS (FIG. 11A) or Taxol (FIG. 11B) were used and the determination of the apoptotic cells took place after 3 hours.

A further assay has as its system MKN-45 cells. Nature of the assay: apoptosis induction in MKN-45 tumour cells, single substances and combinations. In kind it is cell-based.
The subject of assay [3] is transformed rat fibroblast line 208Fsrc3. Nature of the assay: autocrine, ROS mediated apoptosis induction in transformed cells. The class given is cell-based. Particulars: 22 hours; for effect on autocrine apoptosis: 50 mM taurine, 150 μM ABH or 10 mM mannitol; for effect of higher SOD concentrations on apoptosis: concentrations above maximum inhibition. As to the method: 12 500 cells of the transformed rat fibroblast line 208Fsrc3 per 100 μl complete medium were sown in 96 hole plates. Following growth 20 ng/ml TGF-beta-1 were added to all preparations. To the preparations the stated concentrations of Cu SOD (from bovine erythroctes) or Mn SOD (from E. coli) were added. Some of the preparations received 50 mM of the HOCl receptor taurine (TAU), 150 μM of the peroxidase inhibitor 4-aminobenzoylhydrazide (ABH) or 10 mM of the hydroxyl radical scavenger mannitol. After 22 hours the percentages of apoptotic cells were determined on the basis of the conventional apoptosis characteristics of nuclear condensation, nuclear fragmentation or membrane blebbing in each case in duplicate preparations.

Another assay deals with 208Fsrc3 cells. Nature of the assay: EUK-8-mediated apoptosis induction, Cu SOD bell curve. In kind it is cell-based, rat. The method, then: 12 500 208Fsrc3 cells in 100 μl (96 hole plate) had increasing concentrations of Cu SOD added in the presence of 120 μM EUK-8. After 5 hours the percentage of apoptotic cells was determined in duplicate preparations.
The indicated cell counts (208Fsrc3) in 100 μl medium had increasing concentrations of Cu SOD added in the presence of 120 μM EUK-8. After 1.5 hours in duplicate preparations the percentages of apoptotic cells were determined. There is a direct dependency between the SOD concentration at the vertex and the number of cells per preparation. Since this in turn determines the total concentration of available superoxide anions, there is a correlation between SOD concentration at the vertex and the superoxide anions concentration achieved.

Assay [4] concerns human lymphoma line Gumbus. Nature of the assay: catalase deactivation of tumour cells (hydrogen peroxide induced apoptosis). The class given is cell-based. Particulars: 1.5 hours. The method, then: 25 000 cells of the human lymphoma line Gumbus/100 μl medium had the stated concentrations of hydrogen peroxide added without 3-AT or in the presence of 50 mM or 100 mM of the catalase inhibitor 3-AT. After 1.5 hours in duplicate preparations the apoptosis induction was determined.
FIG. 14B: Gumbus cells were pre-incubated without Taxol (control) or with 10 μg/ml Taxol for 30 minutes at 37° C. Parallel preparations were either free of further substances or contained 2 mM histidine (singlet oxygen-receptor), 25 μM FeTPPS (catalytically-acting peroxynitrite destroyer) or 25 U/ml catalase (CAT). Following pre-incubation the cells were separated by centrifugation, absorbed in fresh medium and the stated concentrations of hydrogen peroxide added. After 1.5 hours the assessment was performed in the duplicate preparations.

In the case of catalase, the “effect on MPO-mediated apoptosis (HOCl pathway)” value (“effect on MPO-mediated apoptosis” for short) in assay [1] is reported as “inhibition”.

Consider `C/C(=C\c1csc(C)n1)[C@@H]1C[C@@H]2O[C@]2(C)CCC[C@H](C)[C@H](O)[C@@H](C)C(=O)C(C)(C)[C@@H](O)CC(=O)O1` [epothilone B], for which, in assay [2], the “effect on superoxide anion production” value is listed as “did not demonstrate any effect” and the “stimulation of the NADPH oxidase” value was “simultaneous stimulation of the NADPH oxidase”. The “increase in superoxide anion production” value in assay [2] (highest concentration of epothilone B, 150 mM 3-AT, 8 hours) is reported as “fourfold”. In the assay with NO dioxygenase (NOD) (all concentrations used, 200 mM 3-AT, 2.4 mM NAME, 25 μM EUK-134, 2 hours), the “effect on DEA NONOate-dependent apoptosis (NOD inhibition)” value is “led to an increase in the DEA-NONOATE-dependent apoptosis”. Further, the “available NO concentration through inhibition of the NOD” value in the assay on NO dioxygenase (NOD) was “increase in the available NO concentration”. Further, the apoptosis induction result in the assay on MKN-45 cells (0.75 ng/ml epothilone B alone, 3 hours) is on record as “neither the low epothilone B concentration nor resveratrol on its own was able to induce apoptosis”.

With `Oc1ccc(C=Cc2cc(O)cc(O)c2)cc1` [resveratrol], the “increase in superoxide anion production” value in assay [2] (4 or 20 μg/ml resveratrol, 120 μM EUK-8, 4 hours) is reported as 8-16 times. Also, the “inhibitory capability of the NOD” value in the assay with NO dioxygenase (NOD) (data not shown) is on record as “no indications of an inhibitory capability of the NOD”. Also, the apoptosis induction result in the assay with MKN-45 cells (25 μg/ml resveratrol alone, 3 hours) is recorded as “neither the low epothilone B concentration nor resveratrol on its own was able to induce apoptosis”; in the assay on MKN-45 cells (each stated concentration of resveratrol alone, 4.5 hours) it was “induced no apoptosis”. The “apoptosis induction by resveratrol alone” value in the assay with MKN-45 cells (0.2 or 20 μM resveratrol, 4.5 hours) is reported as “little more than background apoptosis”.

`NCCS(=O)(=O)O` [taurine]: the “effect on autocrine apoptosis” value in assay [3] is recorded as “completely inhibited”. The “effect on MPO-mediated apoptosis” value in assay [1] is on record as “inhibition”.

“Cu SOD: Cu-containing superoxide dismutase from bovine erythroctes”: the “effect of higher SOD concentrations on apoptosis” value in assay [3] is “renewed increase in the apoptosis”. In addition, in the assay on 208Fsrc3 cells (120 μM EUK-8, 12 500 cells, 5 hours), the “effect of Cu SOD on EUK-8-mediated apoptosis” value is reported as “leads to a bell curve”. The “SOD concentration at the vertex (maximum inhibition)” value with 208Fsrc3 cells (6 250 cells, 120 μM EUK-8, 1.5 hours) is recorded as 0.57 U/ml.

Turning to Photofrin, the “stimulation of the NADPH oxidase by singlet oxygen” value in assay [2] (1 μg/ml Photofrin exposed to light, 100 mM 3-AT, 5 hours) is on record as “significant stimulation of the NADPH oxidase”.

For `NNC(=O)c1ccc(N)cc1` [ABH, 4-aminobenzoylhydrazide], the “effect on autocrine apoptosis” value in assay [3] is recorded as “completely inhibited”.

With `Oc1cc(O)c2cc(O)c(-c3ccc(O)c(O)c3)[o+]c2c1.[Cl-]` [cyanidin chloride], the “dependence of the effect on caspase-8” value with MKN-45 cells (high cyanidin chloride concentration, 3 hours) is reported as “dependent upon caspase-8”.

As to `OC[C@@H](O)[C@@H](O)[C@H](O)[C@H](O)CO` [mannitol], in assay [3], the “effect on autocrine apoptosis” value is given as “completely inhibited”. For the same molecule, the “effect on MPO-mediated apoptosis” value in assay [1] was “inhibition”.

Regarding `Nc1nc[nH]n1` [3-AT, 3-aminotriazole], in assay [4] (50 mM or 100 mM 3-AT), the “effect on catalase protection against exogenous hydrogen peroxide” value is on record as “can be reversed”.

For the molecule `N=C(N)NCCC[C@H](N)C(=O)O` [arginine], in the assay with MKN-45 cells, the “apoptosis induction by arginine alone” value is recorded as “concentration-dependent apoptosis induction” and the “dependence of apoptosis on caspase-8 / FAS” value is “strictly dependent upon the involvement of a caspase-8-mediated step”.

In the case of `CC(=O)O[C@H]1C(=O)[C@@]2(C)[C@H]([C@H](OC(=O)c3ccccc3)[C@]3(O)C[C@H](OC(=O)[C@H](O)[C@@H](NC(=O)c4ccccc4)c4ccccc4)C(C)=C1C3(C)C)[C@]1(OC(C)=O)CO[C@@H]1C[C@@H]2O` [Taxol], the “stimulation of the NADPH oxidase compared with epothilone B” value in assay [2] (data not shown) is “behaves in the same way”. For the same molecule, the “stimulation of the NADPH oxidase” value in assay [2] was “simultaneous stimulation of the NADPH oxidase”. Also, the “effect on available NO concentration (NOD inhibition)” value in the assay with NO dioxygenase (NOD) is given as “led to an increase in the available NO concentration”. For the same molecule, the “available NO concentration through inhibition of the NOD” value with NO dioxygenase (NOD) is “increase in the available NO concentration”. Besides, the apoptosis induction result in the assay on MKN-45 cells (0.013 μg/ml Taxol alone, 4.5 hours) is reported as “induced no apoptosis”; in the assay with MKN-45 cells (10 μg/ml Taxol alone, 4.5 hours), “clear apoptosis induction”. Further, the “effect on catalase protection against exogenous hydrogen peroxide” value in assay [4] (pre-incubation with 10 μg/ml Taxol for 30 minutes, washed) is on record as “has the same effect as 3-AT”.

In the case of `C=CCSSCC=C` [DADS, diallyl disulfide], the “effect on available NO concentration (NOD inhibition)” value with NO dioxygenase (NOD) is given as “led to an increase in the available NO concentration”.

Regarding `C=CCN=C=S` [allyl isothiocyanate], in assay [2], the “stimulation of the NADPH oxidase” value is “simultaneous stimulation of the NADPH oxidase”. The “available NO concentration through inhibition of the NOD” value in the assay on NO dioxygenase (NOD) was “increase in the available NO concentration”.

B1: MPO: exogenous myeloperoxidase (protein, UniProt P05164 165-745, looked up)
Myeloperoxidase: VTCPEQDKYRTITGMCNNRRSPTLGASNRAFVRWLPAEYEDGFSLPYGWTPGVKRNGFPVALARAVSNEIVRFPTDQLTPDQERSLMFMQWGQLLDHDLDFTPEPAARASFVTGVNCETSCVQQPPCFPLKIPPNDPRIKNQADCIPFFRSCPACPGSNITIRNQINALTSFVDASMVYGSEEPLARNLRNMSNQLGLLAVNQRFQDNGRALLPFDNLHDDPCLLTNRSARIPCFLAGDTRSSEMPELTSMHTLLLREHNRLATELKSLNPRWDGERLYQEARKIVGAMVQIITYRDYLPLVLGPTAMRKYLPTYRSYNDSVDPRIANVFTNAFRYGHTLIQPFMFRLDNRYQPMEPNPRVPLSRVFFASWRVVLEGGIDPILRGLMATPAKLNRQNQIAVDEIRERLFEQVMRIGLDLPALNMQRSRDHGLPGYNAWRRFCGLPQPETVGQLGTVLRNLKLARKLMEQYGTPNNIDIWMGGVSEPLKRKGRVGPLLACIIGTQFRKLRDGDRFWWENEGVFSMQQRQALAQISLPRIICDNTGITTVSKNNIFMSNSYPRDFVNCSTLPALNLASWREAS
As to B1, in assay [1], the “effect on MPO-mediated apoptosis” value was “accelerates the HOCl pathway”.

B2: Mn SOD: Mn-containing superoxide dismutase from E. coli (protein, UniProt P00448 2-206, looked up)
Superoxide dismutase [Mn]: SYTLPSLPYAYDALEPHFDKQTMEIHHTKHHQTYVNNANAALESLPEFANLPVEELITKLDQLPADKKTVLRNNAGGHANHSLFWKGLKKGTTLQGDLKAAIERDFGSVDNFKAEFEKAAASRFGSGWAWLVLKGDKLAVVSTANQDSPLMGEAISGASGFPIMGLDVWEHAYYLKFQNRRPDYIKEFWNVVNWDEAAARFAAKK
As to B2, in assay [3], the “effect of higher SOD concentrations on apoptosis” value is listed as “once the maximum inhibition has been reached this is maintained”.
